Data as given in paper PMC7351026, “Serum Half-Lives for Short- and Long-Chain Perfluoroalkyl Acids after Ceasing Exposure from Drinking Water Contaminated by Firefighting Foam” (Environmental Health Perspectives, 2020).
Like-named read-outs stand apart in the source and are kept apart here.

Assays:
[1] = PFAS levels in serum samples of airport employees (LC/MS/MS); conditions: all the serum samples, although elevated in the drinking water
Source text: All 26 employees at the airport were invited for a blood sampling between 11 and 14 September 2018 (i.e., within 11 to 14 d after the termination of contaminated drinking-water exposure). Information on age, home address, employment history, working tasks, and sick leave and vacation days in August and September were collected by questionnaire. In addition, data on the number of glasses of water consumed per day, local fish consumption, and history of blood donation and medication were collected. For female employees, questions about menstruation, pregnancy, and duration of breast-feeding were asked.
The PFAS analysis in serum from the first sampling was immediately performed and personal results were reported to the employees. […] These 17 employees submitted four rounds of blood and first morning urine samples in parallel, at 1-month intervals. In total, there were five rounds of serum sampling (started from September) and four rounds of urine sampling (from October). For modeling of elimination, all samples were reanalyzed in a single batch. We obtained 83 serum samples with a median count of 5 (range: 4–5) samples per employee, and 59 urine samples with median of 4 (range: 1–4) samples per employee. Only one employee provided a single urine sample. The study was approved by the Regional Ethical Review Board in Lund, Sweden. All employees provided written informed consent.
Venous whole blood samples were obtained and were centrifuged for 10 min at 1,500×g at room temperature to isolate the serum on site. The serum samples were collected in 6-mL BD Vacutainer® Plus plastic serum tubes without gel (BD). Urine samples were collected in 13-mL polypropylene screw cap tubes (Sarstedt). Serum and urine samples were frozen at −20°C after sampling and transported to Lund using cold chain logistics. Serum and urine samples were stored at −80°C and −20°C , respectively, before analysis.
The serum samples, QC samples, and chemical blanks were prepared in 96-well plates with 1.5-mL flat-bottom glass vials (Biotech solutions). Serum samples were thawed for 1–2 h and mixed on a vortex shaker for approximately 10 s two times. Once after all samples were thawed and a second time before pipetting the serum to the plate. Before pipetting, the tip was pre-wetted several times, drawing a volume into the tip and dispensing it back into the tube. Sample preparation procedures for serum samples consisted of 25μL serum mixed with 25μL water, 25μL methanol, 25μL isotopically labeled internal standards in 50% acetonitrile (see Table S1), and 100μL acetonitrile. Thereafter, samples were mixed vigorous by shaking for 30 min and centrifuged at 2,600×g for 10 min at room temperature. The supernatant ( 0.2mL ) was transferred to 96-well plates with 0.5-mL conical glass vials (MicroLiter Analytical Supplies) and again centrifuged at 3,000×g for 10 min before analysis. The QC samples and chemical blanks were prepared following the same procedure as the serum samples. The calibration standards were prepared in FBS the same way as the samples, except for the addition of diluted reference standards of all analyzed compounds in 25μL of the methanol solution.
Aliquots of 4μL of the sample were analyzed using LC/MS/MS. For the analysis, a C18 column ( 4μm , 2.1mm i.d.×50mm , Genesis Lightning) was used prior to the injector to filter the mobile phases. The analytical column was an Aquity BEH ( 1.7μm , 2.1mm i.d.×100mm Waters). The mobile phases (A and B) were A: 5 mM ammonium acetate in water:methanol (50:50); and B: methanol. The mobile phase was kept at 0% B for 2.5 min after injection. A gradient was then applied over 11 min to 90% B, where it was then kept for 1.5 min. The column was then conditioned at 0% B for 2 min.

[2] = Urine/serum ratio in paired samples; format: in vivo, human; conditions: mean of four paired samplings per subject, 17 airport employees
Experimental: Urinary PFAS concentrations were specific-gravity adjusted. The ratio of urine and serum concentration for each PFAS (urine/serum ratio) at each sampling was calculated based on PFAS concentrations in paired serum and urine samples from 17 employees. Then the personal average urine/serum ratio was calculated using the mean value of repeated samplings for each employee.

[3] = Population average serum elimination rate and half-life (linear mixed model, one compartment, first-order)
Experimental: Serum PFAS concentrations were log-transformed. Time was calculated as the elapsed days between supply of clean bottled water and […] blood sampling. We assumed one compartment, first-order elimination kinetics. In this kinetic model, the body is considered as one homogeneous volume in which mixing is instantaneous and from which PFAS could be absorbed, transferred, and eliminated according to the rate of elimination that is proportional to the concentration of PFAS in the body. Two methods were used to estimate serum elimination rate constant (k) and half-life for each PFAS:
Briefly, in the linear mixed model In Cij=αi+tijβ+Xiβ′+εij, Cij is the serum concentration of PFAS for individual i at sampling round j; αi is the subject-specific intercept (random intercept); tij is the time; β is the average slope; Xi is a vector of fixed covariates for individual i; β′ stands for the fixed effect coefficients; and εij is the random error term. We modified the model by excluding the subject-specific slope (random slope) due to a failure to converge after inclusion, which may be due to the limited number of study subjects. The negative value of the average slope ( −β ) is the population average k, and average half-life is calculated as ln2/k .
In the linear mixed model, we included only age and sex as covariates. We based covariate selection on factors that could conceivably confound the PFAS half-life estimation. Working task, duration of employment, number of glasses of water per day, blood donation, and pregnancy before mitigation of PFAS exposure from drinking water can influence the initial serum levels but would not be expected to influence the PFAS half-life.
A sensitivity analysis was performed using the same linear mixed model but with Cij as the serum levels after subtracting general background levels (using the median levels obtained from the nonexposed reference population). If the serum PFAS levels after subtraction were lower than the half of the background levels, they were replaced with half of the background levels.

[4] = general Swedish population (Ronneby, 106 Swedes) with high exposure through drinking water, 2 y follow-up from 6 months after clean water; ref Li et al. 2018; cited from earlier work
[5] = design: method as in Zhang et al. 2015; conditions: ref Zhang et al. 2015, cited from earlier work

Compound | Level in serum samples [1] | Personal average urine/serum ratio, median (range) [2] | Average half-life longer than that of the PFCA with same number of carbon atoms ([3]; PFHpS vs PFHpA, PFOS vs PFOA) [y] | Average serum half-life ([3]; population average, linear mixed model with original serum levels, 17 airport employees after end of drinking-water exposure) [y] | Average half-life [4] [y] | Urine/serum ratio ([5]; nonpregnant women) | Urine/serum ratio ([5]; pregnant women)
O=C(O)C(F)(F)C(F)(F)C(F)(F)C(F)(F)F [PFPeA, perfluoropentanoic acid] | below LOD |  |  |  |  |  | 
O=S(=O)(O)C(F)(F)C(F)(F)C(F)(F)C(F)(F)C(F)(F)C(F)(F)C(F)(F)C(F)(F)F [PFOS, perfluorooctane sulfonic acid] |  | 0.00092 | ~1.2 | 2.9 | 3.4 | 0.013 | 0.0004
